Results from US20170021002A1, “AUGMENTATION OF CANCER AND CANCER ENDOTHELIAL VACCINE IMMUNOGENICITY BY HISTONE DEACETYLASE INHIBITORS” (Batu Biologics, Inc., priority 2015, published 2017).

How the values were obtained:
[1] = tested on: allogeneic responding lymphocytes (responder PBMC); test: Mixed lymphocyte reaction, proliferation by [3H]-thymidine incorporation; assay type: cell-based, human; settings: placental endothelial stimulator cells pretreated with the agent; FIG. 1a
Protocol: (§1) Peripheral blood mononuclear cells (PBMC) were isolated from buffy coats of healthy blood donors (Sanquin, Rotterdam, the Netherlands) by density gradient centrifugation using Ficoll-Paque PLUS (density 1.077 g/ml; GE Healthcare, Uppsala, Sweden). Cells were frozen at −150° C. until further use in RPMI-1640 medium with GlutaMAX™-I (Life Technologies) supplemented with 1% P/S, 10% human serum (Sanquin) and 10% dimethylsulphoxide (DMSO; Merck, Hohenbrunn, Germany).
(§2) Mixed lymphocyte reactions (MLR) were set up with 5×10^5 responder PBMC and 5×10^3 (1:100), 5×10^4 (1:10), […] γ-irradiated (10 Gy) ValloVax™ cells in round-bottomed 96-well plates (Nunc, Roskilde, Denmark). MLR were cultured in MEM-α supplemented with 2 mM L-glutamine, 1% P/S and 10% heat-inactivated human serum for 4 days in a humidified atmosphere with 5% CO2 at 37° C.
Cell proliferation was assessed by thymidine incorporation, [^3H]-thymidine (0.25 μCi/well; PerkinElmer, Groningen, the Netherlands) was added on day 4, incubated for 8 h and its incorporation was measured using the Wallac 1450 MicroBeta Trilux (PerkinElmer).
It was previously reported that ValloVax™, a placental endothelial derived cellular vaccine stimulates immunity to proliferating endothelium, resulting in tumor regression. […]

[2] = tested on: mixed lymphocyte reaction (PBMC with ValloVax™ cells); test: Cytokine ELISA of mixed lymphocyte reaction supernatants; assay type: cell-based, human; settings: ValloVax™ treated with VPA
Protocol: as §1, §2
For cytokine analysis supernatant was collected on day two of culture and analyzed by ELISA (R & D Systems) as per manufacturer's instructions.

ValloVax™ cells [3] = test: Viability of ValloVax™ stimulator cells in MLR (CellTiter); assay type: cell-based, human; settings: ValloVax™ cells treated with VPA, cultured with allogeneic responding cells, FIG. 2
Protocol: Cells were incubated with or without 1 mM VPA for 48 hours.
Depletion of T cells, B cells and NK cells was performed with Magnetic Activated Cell (MACS) isolation kits from Milteny Biotec following the manufacturer's instructions.
Viability was assessed by CellTiter Viability kit from Promega following the manufacturer's instructions.
as §2

[4] = tested on: ValloVax™ cells cultured with NK-92 cells; test: Killing of VPA treated ValloVax™ cells by NK-92 cell line; assay type: cell-based, human; settings: FIG. 4
Protocol: Cells were incubated with or without 1 mM VPA for 48 hours. NK-92 cells were added to the target cells as effector cells, and the cells were co-cultured for 4 h 37° C. To block NKG2D on NK-92 cells, 10 μg/ml anti-NKG2D mAb or mouse IgG1 isotype control antibody were added to the NK cells 30 min before co-culture. Viability was assessed by CellTiter Viability kit from Promega following the manufacturer's instructions.

[5] = tested on: Lewis Lung Carcinoma (LLC); test: Established Lewis Lung Carcinoma tumor model; assay type: in vivo, C57BL/6 mice; settings: for antitumor activity / efficacy: VPA systemically administered (100 mg/kg intraperitoneally every third day) to animals receiving ValloVax™, 100 mg/kg; for antitumor activity / efficacy / tumor killing activity / therapeutic efficacy: FIG. 5; for tumor killing activity / therapeutic efficacy: ValloVax™ pretreated in vitro with VPA, compared to standard ValloVax™, LLC bearing mice
Source text: Female C57BL/6 aged 8-12 weeks were purchased from The Jackson Laboratory. Animals were housed under conventional conditions at the Animal Care Facility, Institute for Cellular Immunology, and were cared for in accordance with the guidelines established by the Canadian Council on Animal Care. Lewis Lung Carcinoma (LLC), a murine lung carcinoma originating from C57/BL6 mice was obtained from American Type Culture Collection (ATCC). The cells were maintained in RPMI1640 supplemented with 10% fetal bovine serum, 2 mM glutamine (Gibco-BRL, Life Technologies, Inc.) and were passaged by trypsinization once cells reached 75% confluence. The cell line was cultured at 37°0 C. in a 5% CO2 incubator under fully humidified conditions.
For induction of tumor growth, 5×10^5 LLC cells, American Type Culture Collection (Manassas, Va.) cells were injected subcutaneously into the hind limb flank. Four weekly vaccinations of 5×10^5 test cells were administered subcutaneously on the contralateral side to which tumors were administered. Tumors were allowed to grow for 2 weeks, subsequently to which one injection of ValloVax™ or VPA-pretreated ValloVax™ was given. Valproic acid was administered every third day at a concentration of 100 mg/kg intraperitoneally. Tumor growth was assessed every 3 days by two measurements of perpendicular diameters by a caliper, and animals were sacrificed when tumors reached a size of 1 cm in any direction. Tumor volume was calculated by the following formula: (the shortest diameter^2×the longest diameter)/2.

ValloVax™ cells [6] = test: Ex vivo cytotoxicity of NK cells from in vivo valproic acid treated mice to ValloVax™ cells; assay type: cell-based; settings: NK cells isolated from in vivo valproic acid treated mice
LLC cells = test: Ex vivo cytotoxicity of NK cells from in vivo valproic acid treated mice to LLC cells; assay type: cell-based; settings: NK cells isolated from in vivo valproic acid treated mice
[7] = tested on: non-small cell lung cancer (NSCLC); settings: patients diagnosed with metastatic disease; cited from earlier work

| Molecule | Proliferation of allogeneic responding lymphocytes (allostimulatory activity) [1] | IL-10 in MLR ([2]; FIG. 1d) | production of IFN-gamma in MLR ([2]; supernatants from MLR at 48 hours, FIG. 1b) | production of IL-18 in MLR ([2]; supernatants from MLR at 48 hours, FIG. 1c) | viability of the ValloVax™ cells in MLR (ValloVax™ cells [3]) | viability of the ValloVax™ cells in MLR (ValloVax™ cells [3]; listed as valproic acid) | toxicity to VPA treated ValloVax™ cells [4] | antitumor activity / efficacy [5] | antitumor activity / efficacy ([5]; listed as valpoic acid) | antitumor activity / efficacy ([5]; listed as valproic acid) | tumor killing activity / therapeutic efficacy [5] | tumor killing activity / therapeutic efficacy ([5]; listed as valproic acid) | Survival ([5]; in vivo administration of VPA and ValloVax, established lung cancer model) | cytotoxicity of NK cells to ValloVax™ cells ex vivo (ValloVax™ cells [6]) | cytotoxicity of NK cells to LLC cells (LLC cells) | median overall survival (OS) [7] |
| --- | --- | --- | --- | --- | --- | --- | --- | --- | --- | --- | --- | --- | --- | --- | --- | --- |
| CCCC(CCC)C(=O)O [VPA, Valproic acid] | not | no significant upregulation | substantially increased | substantially increased | dose-dependent loss of viability | killing of ValloVax™ in vitro by an NK cell dependent mechanism | toxicity was observed | synergistic antitumor activity | enhanced antitumor efficacy | augmented efficacy against lung cancer | did not significantly augment | did not augment in vivo efficacy | Significantly Enhances Survival | enhanced cytotoxicity | enhanced cytotoxicity | – |
| Nc1nc2[nH]cc(CCc3ccc(C(=O)N[C@@H](CCC(=O)O)C(=O)O)cc3)c2c(=O)[nH]1 [pemetrexed] | – | – | – | – | – | – | – | – | – | – | – | – | – | – | – | 17 months |
| interferon gamma: cytokine used to pretreat placental endothelial cells (100 IU per ml) (protein, UniProt P01579 24-161, looked up) Interferon gamma: QDPYVKEAENLKKYFNAGHSDVADNGTLFLGILKNWKEESDRKIMQSQIVSFYFKLFKNFKDDQSIQKSVETIKEDMNVKFFNSNKKKRDDFEKLTNYSVTDLNVQRKAIHELIQVMAELSPAAKTGKRKRSQMLFRG | substantially enhanced | – | – | – | – | – | – | – | – | – | – | – | – | – | – | – |
